This test deals with T1, soluble guanylate cyclase (sGC) (Rattus norvegicus, UniProt P20595).
T1 construct: endogenous in cells; host or cells: primary rat aortic smooth muscle cells
T1 sequence (P20595 1-619): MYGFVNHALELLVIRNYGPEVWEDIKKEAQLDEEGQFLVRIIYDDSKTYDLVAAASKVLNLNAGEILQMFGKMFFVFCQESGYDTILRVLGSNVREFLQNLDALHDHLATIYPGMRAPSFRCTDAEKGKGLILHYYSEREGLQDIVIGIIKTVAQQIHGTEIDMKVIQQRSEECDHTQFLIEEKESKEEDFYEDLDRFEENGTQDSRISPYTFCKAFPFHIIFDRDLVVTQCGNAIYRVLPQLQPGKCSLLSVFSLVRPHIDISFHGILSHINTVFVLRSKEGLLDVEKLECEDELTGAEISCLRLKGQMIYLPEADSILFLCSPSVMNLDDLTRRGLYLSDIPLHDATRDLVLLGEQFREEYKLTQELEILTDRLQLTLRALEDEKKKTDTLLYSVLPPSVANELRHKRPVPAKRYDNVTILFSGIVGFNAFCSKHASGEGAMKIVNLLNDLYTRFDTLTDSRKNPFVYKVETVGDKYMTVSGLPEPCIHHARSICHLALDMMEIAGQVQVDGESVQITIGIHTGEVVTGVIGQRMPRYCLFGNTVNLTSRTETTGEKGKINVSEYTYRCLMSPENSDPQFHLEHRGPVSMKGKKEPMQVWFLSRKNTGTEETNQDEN
T1 sequence (P19686 1-690 partner): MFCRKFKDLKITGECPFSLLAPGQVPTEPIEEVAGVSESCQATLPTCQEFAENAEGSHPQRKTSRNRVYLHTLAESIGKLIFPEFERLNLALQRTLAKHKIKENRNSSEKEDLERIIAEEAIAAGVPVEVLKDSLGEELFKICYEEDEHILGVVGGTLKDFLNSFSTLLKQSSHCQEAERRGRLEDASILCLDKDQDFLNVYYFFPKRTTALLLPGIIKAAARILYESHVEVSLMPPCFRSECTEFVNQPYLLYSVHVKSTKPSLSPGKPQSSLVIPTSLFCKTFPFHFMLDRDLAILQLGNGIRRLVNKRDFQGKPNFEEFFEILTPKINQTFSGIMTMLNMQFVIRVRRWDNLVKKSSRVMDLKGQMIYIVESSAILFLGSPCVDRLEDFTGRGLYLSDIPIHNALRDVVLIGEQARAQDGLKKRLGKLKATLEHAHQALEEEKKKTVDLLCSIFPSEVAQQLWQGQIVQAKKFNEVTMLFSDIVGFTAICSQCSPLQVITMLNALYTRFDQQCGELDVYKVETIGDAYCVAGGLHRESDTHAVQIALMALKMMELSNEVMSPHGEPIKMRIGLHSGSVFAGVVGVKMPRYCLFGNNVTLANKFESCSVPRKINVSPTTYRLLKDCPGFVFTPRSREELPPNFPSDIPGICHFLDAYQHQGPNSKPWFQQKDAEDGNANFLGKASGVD
Kind of test: Biological cellular assay: sGC activity by phosphorylation of VASP in rat aortic smooth muscle cells. To be noted: primary rat aortic smooth muscle cells, pre-incubated with 10 μM ODQ, 30 min at 37° C., phospho-VASP (pSer239) fluorescent signal; read-out: Cell assay pEC50 (converted). The class given is cell-based. As to the method: The activity of soluble guanylate cyclase (sGC) was tested in an assay based on measuring phosphorylation of the protein kinase G (PKG) substrate vasodilator-stimulated phosphoprotein (VASP) in rat aortic smooth muscle cells. […] Dimethylsulfoxide (DMSO) vehicle and varying concentrations of the compound to be tested were then added. Following a 30 min incubation at 37° C., media was aspirated and the cells were rinsed with phosphate-buffered saline (PBS) and fixed with 4% formaldehyde in PBS by incubating at room temperature for 20 min. Cells were then washed with PBS and permeabilized for 10 min using 0.1% triton X-100 in PBS. Following PBS rinsing, the cells were blocked for 90 min at room temperature with blocking buffer. The buffer was aspirated and the cells were treated overnight at 4° C. with primary antibody (pSer239-VASP, rabbit polyclonal Ab) diluted 1:500 in blocking buffer. Following three washes with 0.05% Tween 20, the cells were treated for 1 h at room temperature with a fluorescent labeled secondary antibody (IRDye® 800CW Donkey Anti-Rabbit IgG) diluted 1:2500 in blocking buffer with 0.05% Tween 20. Following two washes with PBS, infrared fluorescence was measured using an Odyssey Infrared Imaging System. The activity of a test compound was determined as the pEC50 value which is the concentration able to increase by 50% (vs. Bmax) the phospho-VASP fluorescent signal. Front. Pharmacol., 5 Jul. 2012|doi: 10.3389/fphar.2012.00128, Volume 3 July, 2012, Article number 128.

Where a name gives a salt, the structure may show the parent alone.

Consider `Cc1nc(C2CCN(CC#N)CC2)ccc1COc1c(F)cc(F)cc1-c1cccc(N2CCC(C(=O)O)CC2)n1` [Example 27, 1-(6-(2-((6-(1-(cyanomethyl)piperidin-4-yl)-2-methylpyridin-3-yl)methoxy)-3,5-difluorophenyl)pyridin-2-yl)piperidine-4-carboxylic acid, Sodium salt], for which the EC50 was 39.8 nM. For the compound `Cc1cc(OC2CCN(CC(F)(F)F)CC2)ccc1COc1c(F)cc(F)cc1-c1cccc(N2CCC(C(=O)O)CC2)n1` [Example 93, 1-(6-(3,5-difluoro-2-((2-methyl-4-((1-(2,2,2-trifluoroethyl)piperidin-4-yl)oxy)benzyl)oxy)phenyl)pyridin-2-yl)piperidine-4-carboxylic acid, Sodium salt], the EC50 is 7.94 nM. Turning to `Cc1cc(C2CCN(C(=O)[C@H]3CCOC3)CC2)ccc1COc1c(F)cc(F)cc1-c1cccc(N2CCC(C(=O)O)CC2)n1` [Example 72, (S)-1-(6-(3,5-difluoro-2-((2-methyl-4-(1-(tetrahydrofuran-3-carbonyl)piperidin-4-yl)benzyl)oxy)phenyl)pyridin-2-yl)piperidine-4-carboxylic acid, Sodium salt], the EC50 is 0.427 nM.

For `COCC(=O)N1CCC(c2ccc(COc3c(F)cc(F)cc3-c3cccc(N4CCC(C(=O)O)CC4)n3)c(C)c2)CC1` [Example 60, 1-(6-(3,5-difluoro-2-((4-(1-(2-methoxyacetyl)piperidin-4-yl)-2-methylbenzyl)oxy)phenyl)pyridin-2-yl)piperidine-4-carboxylic acid, Sodium salt], the EC50 is 0.126 nM.
